In US5910502A, “Use of levobupivacaine in paediatric surgery” (priority 1997, dated 1999):
Where a name gives a salt, the structure may show the parent alone.

What was measured:
[1] = test system: tk locus (5-trifluorothymidine resistance) in mouse lymphoma cells; test: Mutation at the tk locus (5-trifluorothymidine resistance) in mouse lymphoma cells, fluctuation protocol, with and without S-9
Procedure: (§1) More specifically, levobupivacaine HCl was assayed for its ability to induce mutation at the tk locus (5-trifluorothymidine resistance) in mouse lymphoma cells using a fluctuation protocol. The study consisted of a cytotoxicity range-finder followed by two independent experiments, each conducted in the absence and presence of metabolic activation by an Aroclor 1254-induced rat liver post-mitochondrial fraction (S-9). For reference, bupivacaine HCl was tested concurrently in the cytotoxicity range-finder.
For reference, three doses of bupivacaine HCl were tested in the absence of S-9 (250, 500 and 750 μg/ml), and two doses in the presence of S-9 (250, 500 μg/ml). The lowest five doses of levobupivacaine HCl and all reference doses of bupivacaine HCl were selected to determined viability and 5-trifluorothymidine resistance, 2 days after treatment.
In the second experiment, the dose range was modified slightly for both levobupivacaine HCl and bupivacaine HCl.
Negative (solvent) and positive control treatments were included in each mutation experiment in the absence and presence of S-9.

[2] = test system: heart; central nervous system (CNS); conditions: cited from earlier work
[3] = Cytotoxicity range-finder (relative survival), with and without S-9; type: cell-based, mouse; conditions: mouse
Procedure: as §1
(§2) A wide range of concentrations were selected for the cytotoxicity range-finder experiments, separated by two-fold intervals and ranging from 31.25 to 1000 μg/ml for levobupivacaine HCl and from 62.5 to 2000 μg/ml for bupivacaine HCl (limited by solubility in both cases).

mouse lymphoma cells = test: as above; type: cell-based
Procedure: as §1, §2

[4] = test system: children having outpatient herniorrhaphy; test: Double-blind randomized placebo-controlled clinical study: IlIH nerve block in children having outpatient herniorrhaphy; type: in vivo, human (children ages 6 mo to 12 y)
Procedure: In a clinical study, the suitability of levobupivacaine in paediatric surgery was evaluated. This was a double-blind randomized, placebo-controlled study, to determine the safety and effectiveness of levobupivacaine for field block in children having outpatient herniorrhaphy. More specifically, otherwise healthy children ages 6 mo to 12 y presenting for outpatient herniorrhaphy were randomized to receive either ilioinguinal/iliohytpogastric (IlIH) nerve block(s) with 0.25 ml/kg 0.5% levobupivacaine per side operated, or no block, at the completion of surgery.

[5] = test system: patients requiring hernia repair; test: Further study in patients requiring hernia repair: rescue analgesia; type: in vivo, human
Procedure: In a further study, using levobupivacaine in patients requiring hernia repair, 45% of patients in the 0.5% levobupivacaine group compared with 73.3% of patients in the no block required at least one dose of rescue analgesia (p=0.167). The majority of the children who required rescue (91.4%) required two or fewer doses of rescue analgesia. […] The median patient in the 0.5% levobupivacaine group first requested rescue medication after at least 118 minutes, compared with 31 minutes in the no block group (p=0.041).

heart = conditions: in vitro; Vanhoutte et al 1991, Denson et al 1992; cited from earlier work
[6] = 0.25 ml/kg 0.5% per side operated, vs no block

CCCCN1CCCCC1C(=O)Nc1c(C)cccc1C (racemic) [bupivacaine]
dosage limitation by cytotoxicity, summary [1]: limited by cytotoxicity
genotoxicity, summary [1]: positive for genotoxicity
CNS side-effects (in words) ([2]; at higher doses): undesirable central nervous system (CNS) side-effects
cardiotoxicity (in words) ([2]; background): cardiotoxic, having depressant electrophysiological and mechanical effects on the heart
death in patients (in words) ([2]; including women in childbirth and Bier's block): produced death in a number of patients

O=[N+]([O-])c1cc[n+]([O-])c2ccccc12 [4-nitroquinoline 1-oxide]
mutation, positive control ([1]; without S-9): clear increases in mutation

c1ccc2c(c1)cc1ccc3cccc4ccc2c1c34 [benzo[a]pyrene]
mutation, positive control ([1]; with S-9): clear increases in mutation

CCCCN1CCCCC1C(=O)Nc1c(C)cccc1C (stereo not drawn) [bupivacaine HCl]
viability ([3]; absence of S-9, 500 μg/ml): 100%
viability ([3]; presence of S-9, 500 μg/ml): 12.4%
cytotoxicity (in words) (mouse lymphoma cells; bupivacaine HCl (reference), top two doses, 1000 and 2000 μg/ml): completely toxic

CCCCN1CCCC[C@H]1C(=O)Nc1c(C)cccc1C [levobupivacaine HCl]
viability ([3]; absence of S-9, 1000 μg/ml): 150%
viability ([3]; presence of S-9, 1000 μg/ml): 9.1%
cell survival (in words) (mouse lymphoma cells; 31.25 to 1000 μg/ml, absence and presence of S-9): Cells survived all doses
mutagenicity, overall conclusion [1]: not mutagenic

CCCCN1CCCC[C@H]1C(=O)Nc1c(C)cccc1C [levobupivacaine, (S)-1-butyl-N-(2,6-dimethylphenyl)-2-piperidinecarboxamide]
genotoxicity, summary [1]: completely negative
safety and effectiveness for IlIH block, conclusion ([4]; 0.25 ml/kg 0.5% levobupivacaine per side operated): safe and effective
adverse events specifically attributable to levobupivacaine ([4]; 0.25 ml/kg 0.5% per side operated): absence of any adverse events
interval to rescue analgesia [4, 6]: longer interval to rescue analgesia
rescue analgesic doses [4, 6]: fewer rescue analgesic doses
CHEOPS ([4]; at 15, 20, 30 and 60 min, 0.25 ml/kg 0.5% per side operated, vs no block): lower CHEOPS
time to first request for rescue medication (in words) ([5]; 0.5% levobupivacaine group vs no block group): significantly longer
patients requiring at least one dose of rescue analgesia ([5]; 0.5% levobupivacaine group, no block 73.3%, p=0.167): 45%
median time to first request for rescue medication ([5]; 0.5% levobupivacaine group, no block 31 minutes, p=0.041): at least 118 minutes
cardiotoxicity relative to dextrobupivacaine and racemic bupivacaine (heart): less cardiotoxic than dextrobupivacaine and racemic bupivacaine
